From ChEMBL document CHEMBL1208784, “Refinement of the pharmacophore of 3,4-dihydroquinazoline-2(1H)-thiones for their anti-melanogenesis activity” (Bioorg Med Chem Lett, 2010)

Assays:
B16 [1] = assay: Antimelanogenic activity in mouse B16 cells assessed as inhibition of alpha-MSH-induced melanogenesis; type: functional, cell-based
B16 [2] = assay: Antimelanogenic activity in mouse B16 cells assessed as inhibition of alpha-MSH-induced melanogenesis at 10 uM; type: functional
B16 [3] = assay: Antimelanogenic activity in mouse B16 cells assessed as inhibition of alpha-MSH-induced melanogenesis at 100 uM; type: functional
Tyrosinase = biological target: T1, Tyrosinase (Mus musculus, UniProt P11344); assay: Inhibition of tyrosinase in alpha-MSH-induced mouse B16 cells; type: cell-based
T1 sequence (P11344 whole entry): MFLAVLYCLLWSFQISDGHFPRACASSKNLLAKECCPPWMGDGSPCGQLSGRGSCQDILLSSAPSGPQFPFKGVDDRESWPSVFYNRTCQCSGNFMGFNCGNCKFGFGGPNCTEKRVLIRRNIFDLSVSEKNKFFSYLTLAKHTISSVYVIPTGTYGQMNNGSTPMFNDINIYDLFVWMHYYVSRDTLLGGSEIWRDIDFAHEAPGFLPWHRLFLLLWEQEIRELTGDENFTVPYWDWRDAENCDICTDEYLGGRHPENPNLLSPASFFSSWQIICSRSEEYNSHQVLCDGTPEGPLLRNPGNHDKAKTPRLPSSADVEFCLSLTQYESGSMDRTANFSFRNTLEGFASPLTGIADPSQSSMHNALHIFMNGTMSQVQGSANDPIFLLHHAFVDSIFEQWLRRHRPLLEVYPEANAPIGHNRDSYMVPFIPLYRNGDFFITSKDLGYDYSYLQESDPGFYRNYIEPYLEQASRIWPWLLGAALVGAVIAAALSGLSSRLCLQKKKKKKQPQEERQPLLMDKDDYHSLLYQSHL

| IC50 (B16 [1]) | SMILES | inhibition at 10 µM (B16 [2]) | inhibition at 100 µM (B16 [3]) | IC50 (Tyrosinase) |
| --- | --- | --- | --- | --- |
| 3 µM | Cc1ccc2c(c1)CN(CCC(C)C)C(=S)N2 | > 100% |  |  |
| 1.2 µM | CCCCCCN1Cc2cc(C)ccc2NC1=S | > 100% |  |  |
| 1.4 µM | CCCCCCCN1Cc2cc(C)ccc2NC1=S | > 100% |  |  |
| 1.6 µM | Cc1ccc2c(c1)CN(CC1CCCCC1)C(=S)N2 | > 100% |  |  |
| 1.2 µM | S=C1Nc2ccc(Cl)cc2CN1CC1CCCCC1 | > 100% |  |  |
| 15.8 µM | S=C1NCc2ccccc2N1 | 36% |  |  |
| 19 µM | Cc1ccc2c(c1)CN(C(C)C)C(=S)N2C | 10% |  |  |
| 17.8 µM | Cc1ccc2c(c1)CN(CC(C)C)C(=S)N2C | 18% |  |  |
| > 10 µM | Cc1ccc2c(c1)CN(C(C)C)C(=O)N2 | 13% |  |  |
| > 10 µM | Cc1ccc2c(c1)CN(CC(C)C)C(=O)N2 | 11% |  |  |
| > 10 µM | Cc1ccc2c(c1)CN(CCC(C)C)C(=O)N2 | 15% |  |  |
| > 10 µM | CCCCCCN1Cc2cc(C)ccc2NC1=O | 12% |  |  |
| > 10 µM | CCCCCCCN1Cc2cc(C)ccc2NC1=O | 19% |  |  |
| > 10 µM | Cc1ccc2c(c1)CN(CC1CCCCC1)C(=O)N2 | 18% |  |  |
| > 10 µM | O=C1Nc2ccc(Cl)cc2CN1CC1CCCCC1 | 10% |  |  |
| > 10 µM | O=C1NCc2ccccc2N1 | 11% |  |  |
| 1.9 µM | Cc1ccc2c(c1)CN(C(C)C)C(=S)N2 | > 100% |  |  |
| 1.9 µM | Cc1ccc2c(c1)CN(CC(C)C)C(=S)N2 | > 100% |  |  |
|  | NC(=O)Nc1ccccc1 |  | 0% |  |
|  | NC(=S)Nc1ccccc1 [PHENYLTHIOUREA] |  |  | 1.8 µM |
